This note sets out measurements from patent US20200206350A1, “COMPOUNDS FOR REDUCING THE VISCOSITY OF BIOLOGICAL FORMULATIONS” (Merck Sharp & Dohme Corp., priority 2017, published 2020).

For one series, the system named is pembrolizumab. The series can be described thus: Viscosity of pembrolizumab test formulations (mVROC viscometer). It is filed as physicochemical. Conditions: 10 mM histidine buffer, 200 mg/mL pembrolizumab, 0.2 M excipient, pH 5.5. On the procedure:
Pembrolizumab formulations comprised the following: 10 mM histidine buffer, pembrolizumab at a concentration of 200 mg/mL, and the test excipient (pegylated excipient of the invention, as described herein) at a concentration of 200 mM, pH adjusted to pH 5.5. Pembrolizumab formulations without excipients consisted of 200 mg/mL pembrolizumab in 10 mM histidine buffer at pH 5.5. The 10 mM histidine buffer used with pembrolizumab formulations consisted of consists of 10 mM L-histidine in sterile water, pH adjusted to 5.5.
(§1) All viscosity measurements were conducted using the mVROC (Viscometer/Rheometer-On-A-Chip, RheoSense, Inc., San Ramon, Calif.). The test formulations were placed into a 250 μl Hamilton air-tight syringe, which was then placed inside the syringe jacket of the mVROC. The instrument injected formulation into the chip for viscosity measurement at an appropriate flow rate. Most measurements were done in duplicates.

For the next series, the system named is Antibody B. The series can be described thus: Viscosity of Antibody B test formulations (mVROC viscometer). The format is physicochemical. As to conditions: 10 mM histidine buffer, 177 mg/mL Antibody B, 0.2 M excipient, pH 6.0. The protocol: Antibody B formulations comprised the following: 10 mM histidine buffer, Antibody B at a concentration of 177 mg/mL and the test excipient (pegylated excipient of the invention, as described herein) at a concentration of 200 mM, pH adjusted to pH 6.0. The Antibody B formulation without excipients consisted of 177 mg/mL Antibody B in 10 mM histidine buffer at pH 6.0. The 10 mM histidine buffer used with Antibody B consisted of 10 mM L-histidine in sterile water, pH adjusted to 6.0.
as §1

Structures can show the parent of a compound that is named as a salt. Marks after values point to notes of the source that are not given here.

Regarding `N=C(N)NCCC[C@H](N)C(=O)O` [Arginine, reference compound], in the series on pembrolizumab, the “Viscosity 1” value was found to be 30.25 mPa-s, the “Viscosity 2” value is 30.55 mPa-s and the “Viscosity Average” value is given as 30.40 mPa-s.

Regarding `COCCOCCOCC(=O)N[C@@H](Cc1c[nH]cn1)C(=O)O` [Example 1, (S)-12-((1H-imidazol-4-yl)methyl)-10-oxo-2,5,8-trioxa-11-azatridecan-13-oic acid], in the series on pembrolizumab, the “Viscosity 1” value turned out to be 23.12 mPa-s, the “Viscosity 2” value is 23.27 mPa-s and the “Viscosity Average” value stood at 23.20 mPa-s.

For the molecule `COCCOCCOCC(=O)N[C@@H](CCCNC(=N)N)C(=O)O` [Example 2, (S)-12-(3-guanidinopropyl)-10-oxo-2,5,8-trioxa-11-azatridecan-13-oic acid], in the series with pembrolizumab, the “Viscosity 1” value was found to be 22.05 mPa-s, the “Viscosity 2” value is 22.24 mPa-s and the “Viscosity Average” value was found to be 22.15 mPa-s.

With `COCCOCCN(C(=O)COCCOC)[C@@H](CCCNC(=N)N)C(=O)O` [Example 3, (S)-5-guanidino-2-(2-(2-methoxyethoxy)-N-(2-(2-methoxyethoxy)ethyl)acetamido)pentanoic acid], in the series on pembrolizumab, the “Viscosity 1” value turned out to be 21.12 mPa-s, the “Viscosity 2” value worked out at 21.18 mPa-s and the “Viscosity Average” value was 21.15 mPa-s.

On to `COCCOCCN(C(=O)COCCOC)[C@@H](Cc1c[nH]cn1)C(=O)O` [Example 4, (S)-3-(1H-imidazol-4-yl)-2-(2-(2-methoxyethoxy)-N-(2-(2-methoxyethoxy)ethyl)acetamido)propanoic acid], for which, in the series with pembrolizumab, the “Viscosity 1” value stood at 19.64 mPa-s, the “Viscosity 2” value was found to be 19.28 mPa-s and the “Viscosity Average” value is on record as 19.46 mPa-s.

In the case of `COCCOCCN(CCOCCOC)[C@@H](CCCNC(=N)N)C(=O)O` [Example 5, (S)-2-(bis(2-(2-methoxyethoxy)ethyl)amino)-5-guanidinopentanoic acid], in the series with pembrolizumab, the “Viscosity 1” value was 18.02* *Ave- rage of 4 values mPa-s, the “Viscosity 2” value is listed as 18.37* *Ave- rage of 4 values mPa-s and the “Viscosity Average” value is listed as 18.19** **Ave- rage of 8 values mPa-s.

In the case of `COCCOCCN(CCOCCOC)[C@@H](Cc1c[nH]cn1)C(=O)O` [Example 6, (S)-2-(bis(2-(2-methoxyethoxy)ethyl)amino)-3-(1H-imidazol-4-yl)propanoic acid], in the series with pembrolizumab, the “Viscosity 1” value was 17.57* *Ave- rage of 3 values mPa-s, the “Viscosity 2” value is recorded as 18.10* *Ave- rage of 3 values mPa-s and the “Viscosity Average” value was 17.83** **Ave- rage of 6 values mPa-s.

Consider `COCCOCCN(CCOCCOC)[C@@H](CCCNC(=N)N)C(=O)O` [Example 8, (S)-2-(bis(2-(2-methoxyethoxy)ethyl)amino)-5-guanidinopentanoic acid dihydrochloride], for which, in the series on Antibody B, the “Viscosity 1” value amounted to 22.25 mPa-s, the “Viscosity 2” value amounted to 22.19 mPa-s and the “Viscosity Average” value is 22.22 mPa-s.

With `COCCOCCN(CCOCCOC)[C@@H](Cc1c[nH]cn1)C(=O)O` [Example 9, (S)-2-(bis(2-(2-methoxyethoxy)ethyl)amino)-3-(1H-imidazol-4-yl)propanoic acid dihydrochloride], in the series on Antibody B, the “Viscosity 1” value stood at 26.55 mPa-s, the “Viscosity 2” value is on record as 26.67 mPa-s and the “Viscosity Average” value was determined as 26.61 mPa-s.

Consider `COCCOCC(=O)N[C@@H](CCCCN)C(=O)O` [Example 10, (S)-6-amino-2-(2-(2-methoxyethoxy)acetamido)hexanoic acid], for which, in the series on pembrolizumab, the “Viscosity 1” value was found to be 26.39 mPa-s, the “Viscosity 2” value amounted to 26.35 mPa-s and the “Viscosity Average” value turned out to be 26.37 mPa-s.

For `COCCOCCN(CCOCCOC)[C@@H](CCCCN)C(=O)O` [Example 11, (S)-6-amino-2-(bis(2-(2-methoxyethoxy)ethyl)amino)hexanoic acid], in the series with pembrolizumab, the “Viscosity 1” value is given as 21.36 mPa-s, the “Viscosity 2” value is on record as 21.50 mPa-s and the “Viscosity Average” value is listed as 21.43 mPa-s.

As to `COCCOCCN[C@@H](Cc1c[nH]cn1)C(=O)O` [Example 12, (S)-3-(1H-imidazol-4-yl)-2-((2-(2-methoxyethoxy)ethyl)amino)propanoic acid], in the series with pembrolizumab, the “Viscosity 1” value is recorded as 22.19 mPa-s, the “Viscosity 2” value is 22.33 mPa-s and the “Viscosity Average” value is 22.26 mPa-s.

For `COCCOCC(=O)N[C@@H](Cc1c[nH]cn1)C(=O)O` [Example 13, (2-(2-methoxyethoxy)acetyl)-L-histidine], in the series with pembrolizumab, the “Viscosity 1” value was determined as 20.05 mPa-s, the “Viscosity 2” value came to 20.09 mPa-s and the “Viscosity Average” value is 20.07 mPa-s.

In the case of `COCCOCCN[C@@H](CCCNC(=N)N)C(=O)O` [Example 14, (S)-5-guanidino-2-((2-(2-methoxyethoxy)ethyl)amino)pentanoic acid], in the series on pembrolizumab, the “Viscosity 1” value came to 24.59 mPa-s, the “Viscosity 2” value was found to be 24.76 mPa-s and the “Viscosity Average” value is listed as 24.68 mPa-s.

As for `COCCOCC(=O)N[C@@H](CCCNC(=N)N)C(=O)O` [Example 15, (2-(2-methoxyethoxy)acetyl)-L-arginine dihydrochloride], in the series on pembrolizumab, the “Viscosity 1” value turned out to be 18.67 mPa-s and the “Viscosity Average” value was determined as 18.67 mPa-s.

Turning to `COCCOCCOCCOCC(=O)N[C@@H](Cc1c[nH]cn1)C(=O)O` [Example 16], in the series with pembrolizumab, the “Viscosity 1” value is on record as 23.33 mPa-s, the “Viscosity 2” value is 23.54 mPa-s and the “Viscosity Average” value was 23.44 mPa-s.

Turning to `COCCOCCOCCOCC(=O)N[C@@H](CCCNC(=N)N)C(=O)O` [Example 17, (2,5,8,11-tetraoxatridecan-13-oyl)-L-arginine], in the series on pembrolizumab, the “Viscosity 1” value is reported as 23.09 mPa-s, the “Viscosity 2” value is 22.82 mPa-s and the “Viscosity Average” value is recorded as 22.96 mPa-s.

Regarding `COCCOCCOCCOCCN[C@@H](Cc1c[nH]cn1)C(=O)O` [Example 18, (2,5,8,11-tetraoxatridecan-13-yl)-L-histidine], in the series on pembrolizumab, the “Viscosity 1” value is given as 22.82 mPa-s, the “Viscosity 2” value stood at 22.47 mPa-s and the “Viscosity Average” value came out at 22.65 mPa-s.

`COCCOCCOCCN[C@@H](Cc1c[nH]cn1)C(=O)O` [Example 19, (2-(2-(2-methoxyethoxy)ethoxy)ethyl)-L-histidine]: in the series with pembrolizumab, the “Viscosity 1” value was 26.58 mPa-s, the “Viscosity 2” value came out at 26.83 mPa-s and the “Viscosity Average” value worked out at 26.71 mPa-s.

Consider `N=C(N)NCCC[C@@H](C(=O)O)N(CCOCCO)CCOCCO` [Example 20, (S)-2-(bis(2-(2-hydroxyethoxy)ethyl)amino)-5-guanidinopentanoic acid], for which, in the series on pembrolizumab, the “Viscosity 1” value is 25.28 mPa-s, the “Viscosity 2” value came to 25.42 mPa-s and the “Viscosity Average” value was determined as 25.35 mPa-s.

Consider `O=C(O)[C@H](Cc1c[nH]cn1)N(CCOCCO)CCOCCO` [Example 21, (S)-2-(bis(2-(2-hydroxyethoxy)ethyl)amino)-3-(1H-imidazol-4-yl)propanoic acid], for which, in the series on pembrolizumab, the “Viscosity 1” value is recorded as 23.19 mPa-s, the “Viscosity 2” value is 23.16 mPa-s and the “Viscosity Average” value is recorded as 23.18 mPa-s.

`COCCOCC(=O)N[C@@H](Cc1ccccc1)C(=O)O` [Example 22]: in the series with pembrolizumab, the “Viscosity 1” value is on record as 17.77 mPa-s, the “Viscosity 2” value worked out at 17.63 mPa-s and the “Viscosity Average” value was 17.70 mPa-s.

Regarding `COCCOCC(=O)N[C@@H](Cc1ccc(O)cc1)C(=O)O` [Example 23, (2-(2-methoxyethoxy)acetyl)-L-tyrosine], in the series with pembrolizumab, the “Viscosity 1” value is recorded as 20.15 mPa-s, the “Viscosity 2” value was 20.09 mPa-s and the “Viscosity Average” value is 20.12 mPa-s.

For the molecule `N[C@@H](Cc1c[nH]cn1)C(=O)O` [Histidine, reference compound], in the series with pembrolizumab, the “Viscosity 1” value came to 35.79 mPa-s, the “Viscosity 2” value is 35.32 mPa-s and the “Viscosity Average” value was determined as 35.56 mPa-s.
